# From US11814445B2, “Cyclic polypeptides for PCSK9 inhibition” (Ra Pharmaceuticals, Inc., priority 2018, dated 2023)
# Numbered stars: 1 amine (or outer) side, 2 acyl side, 3 side chain; on linkers, the order of the positions; unused ones are H or OH. Bridge positions count the residues as written; N and C are the ends. Square brackets hold non-standard residues; d marks the D form. Peptide text beside a SMILES is read from it. Trp(5-F) = N[C@@H](Cc1c[nH]c2ccc(F)cc12)C(=O)O; Pro(trans-4-F) = O=C(O)[C@@H]1C[C@@H](F)CN1; Asp(3,3-Me2) = CC(C)(C(=O)O)[C@H](N)C(=O)O; Phe(3-Cl) = N[C@@H](Cc1cccc(Cl)c1)C(=O)O; Phe(4-Cl) = N[C@@H](Cc1ccc(Cl)cc1)C(=O)O; X1 = O=C(CCSCc1cccc(CSCCN[*:1])c1)[*:2]; 1Nal = N[C@@H](Cc1cccc2ccccc12)C(=O)O; 2Nal = N[C@@H](Cc1ccc2ccccc2c1)C(=O)O; Tiq1c(1S) = O=C(O)[C@H]1NCCc2ccccc21; mXylylene = c1cc(C[*:1])cc(C[*:2])c1; NBzl(4-I)Gly = O=C(O)CNCc1ccc(I)cc1; NMeF = CN[C@@H](Cc1ccccc1)C(=O)O; 2Pal = N[C@@H](Cc1ccccn1)C(=O)O; 4Pal = N[C@@H](Cc1ccncc1)C(=O)O; Cha = N[C@@H](CC1CCCCC1)C(=O)O; Tle = CC(C)(C)[C@H](N)C(=O)O; αMeP = C[C@@]1(C(=O)O)CCCN1; Pip = O=C(O)[C@@H]1CCCCN1; Ac5c = NC1(C(=O)O)CCCC1; Nva = CCC[C@H](N)C(=O)O; Thp = NC1(C(=O)O)CCOCC1; Mpa = O=C(O)CCS
# Biological target: human PCSK9 / human LDLR EGFa domain (Homo sapiens, UniProt Q8NBP7)
# Assay: TR-FRET assay of inhibition of the PCSK9-LDLR protein-protein interaction
# Type: binding
# Details: 20 nM human PCSK9, 20 nM human LDLR EGFa domain, 2 hours room temperature
# Description: A time-resolved fluorescence resonance energy (TR-FRET) assay was used to measure inhibition of the PCSK9-LDLR protein-protein interaction. Briefly, 20 nM avitag-biotinylated human PCSK9 was incubated with 20 nM his-tagged human LDLR EGFa domain in the presence of 5 nM LANCE Ulight Streptavidin (Perkin Elmer) and 5 nM europium-Anti-6×His (Perkin Elmer) for 2 hours covered at room temperature in buffer containing 50 mM HEPES, 150 mM NaCl, 5 mM CaCl2), 0.01% BSA and 0.01% Surfactant P20. Compounds were tested in dose-response and concentrations giving half-maximal inhibition calculated using a 4-parameter fit equation.
# Sequence of human PCSK9 / human LDLR EGFa domain (Q8NBP7 153-692): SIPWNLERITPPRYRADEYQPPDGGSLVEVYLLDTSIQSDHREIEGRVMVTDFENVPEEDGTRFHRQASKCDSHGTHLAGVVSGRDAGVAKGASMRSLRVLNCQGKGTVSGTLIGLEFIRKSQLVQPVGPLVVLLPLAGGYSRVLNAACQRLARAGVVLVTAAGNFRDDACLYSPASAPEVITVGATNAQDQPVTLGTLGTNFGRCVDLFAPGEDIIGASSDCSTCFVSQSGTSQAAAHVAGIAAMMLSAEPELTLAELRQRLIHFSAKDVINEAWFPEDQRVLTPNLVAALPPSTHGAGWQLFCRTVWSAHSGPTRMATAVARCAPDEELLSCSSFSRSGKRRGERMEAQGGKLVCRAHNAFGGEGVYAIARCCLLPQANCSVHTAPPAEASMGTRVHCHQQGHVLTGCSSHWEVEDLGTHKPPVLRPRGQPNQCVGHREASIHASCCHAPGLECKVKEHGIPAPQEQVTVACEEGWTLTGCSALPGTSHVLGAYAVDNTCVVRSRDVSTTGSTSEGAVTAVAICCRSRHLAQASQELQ
row,IC50 [nM],Compound
1,100 to 1000,C[C@@H]1NC(=O)[C@@H]2C[C@@H](F)CN2C(=O)[C@H](Cc2c[nH]c3ccc(F)cc23)NC(=O)[C@H](Cc2c[nH]c3ccc(F)cc23)NC(=O)[C@@H](C)NC(=O)[C@H](CCCCN)NC(=O)CCSCc2cccc(c2)CSC[C@@H](C(N)=O)NC(=O)[C@@H]2CCCN2C(=O)[C@H](Cc2ccc(O)cc2)NC1=O [Compound 037] ([Mpa]K[dA][Trp(5-F)][Trp(5-F)][Pro(trans-4-F)]AYPC-NH2; linker 1-10 via mXylylene)
2,100 to 1000,"CC(C)(C(=O)O)[C@@H]1NC(=O)[C@H](Cc2c[nH]c3ccc(F)cc23)NC(=O)[C@H](Cc2c[nH]c3ccc(F)cc23)NC(=O)CNC(=O)[C@H](CCCCN)NC(=O)CCSCc2cccc(c2)CSC[C@@H](C(N)=O)NC(=O)[C@]2(C)CCCN2C(=O)[C@H](Cc2ccc(O)cc2)NC(=O)[C@H](Cc2cnc[nH]2)NC1=O [Compound 115] ([Mpa]KG[Trp(5-F)][Trp(5-F)][Asp(3,3-Me2)]HY[αMeP]C-NH2; linker 1-10 via mXylylene)"
3,1000 to 12100,C[C@@H]1NC(=O)[C@@H]2CCCN2C(=O)[C@H](Cc2c[nH]c3ccc(F)cc23)NC(=O)[C@H](Cc2cccc3ccccc23)NC(=O)[C@@H](C)NC(=O)[C@@H]2CCCN2C(=O)CCSCc2cccc(c2)CSCCNC(=O)[C@@H]2CCCN2C(=O)[C@H](Cc2cccc3ccccc23)NC1=O [Compound 055] (cyclo([1Nal]P[X1]P[dA][1Nal][Trp(5-F)]PA))
4,100 to 1000,C[C@@H](O)[C@@H]1NC(=O)CNC(=O)[C@H](CCCCN)NC(=O)CCSCc2cccc(c2)CSCCNC(=O)[C@]2(C)CCCN2C(=O)[C@H](Cc2ccc(O)cc2)NC(=O)[C@H](Cc2cnc[nH]2)NC(=O)[C@@H]2CCCN2C(=O)[C@H](Cc2c[nH]c3ccc(F)cc23)NC1=O [Compound 105] (cyclo(GT[Trp(5-F)]PHY[αMeP][X1]K))
5,100 to 1000,C[C@@H]1NC(=O)CNC(=O)[C@H](CCCCN)NC(=O)CCSCc2cccc(c2)CSC[C@@H](C(N)=O)NC(=O)[C@@H]2CCCN2C(=O)[C@H](Cc2ccc(O)cc2)NC(=O)[C@H](Cc2cnc[nH]2)NC(=O)[C@H](CC(=O)O)NC(=O)[C@H](Cc2c[nH]c3ccc(F)cc23)NC1=O [Compound 112] ([Mpa]KGA[Trp(5-F)]DHYPC-NH2; linker 1-10 via mXylylene)
6,100 to 1000,C[C@@H]1NC(=O)[C@@H]2CCCN2C(=O)[C@H](Cc2ccncc2)NC(=O)[C@H](Cc2c[nH]c3ccc(F)cc23)NC(=O)CNC(=O)[C@H](CCCCN)NC(=O)CCSCc2cccc(c2)CSC[C@@H](C(N)=O)NC(=O)[C@@H]2CCCN2C(=O)[C@H](Cc2ccc(O)cc2)NC1=O [Compound 021] ([Mpa]KG[Trp(5-F)][4Pal]PAYPC-NH2; linker 1-10 via mXylylene)
7,21000 to 50000,C[C@@H]1NC(=O)CCSCc2cccc(c2)CSCCNC(=O)[C@@H]2CCCN2C(=O)[C@H](Cc2cccc3ccccc23)NC(=O)[C@H](C)NC(=O)[C@@H]2CCCN2C(=O)[C@H](Cc2c[nH]c3ccc(F)cc23)NC(=O)[C@H](Cc2c[nH]c3ccc(F)cc23)NC(=O)[C@@H](C)NC1=O [Compound 065] (cyclo([1Nal]P[X1]A[dA][Trp(5-F)][Trp(5-F)]PA))
8,1000 to 12100,CCC[C@@H]1NC(=O)CCSCc2cccc(c2)CSCCNC(=O)[C@@H]2CCCN2C(=O)[C@H](Cc2ccc(O)cc2)NC(=O)[C@H](C)NC(=O)[C@@H]2CCCN2C(=O)[C@H](Cc2c[nH]c3ccc(F)cc23)NC(=O)[C@H](Cc2c[nH]c3ccc(F)cc23)NC(=O)[C@@H](C)NC1=O [Compound 093] (cyclo(AYP[X1][Nva][dA][Trp(5-F)][Trp(5-F)]P))
9,21000 to 50000,C[C@@H]1NC(=O)CCSCc2cccc(c2)CSCCNC(=O)[C@@H]2CCCN2C(=O)[C@H](Cc2ccccc2)N(C)C(=O)[C@H](C)NC(=O)[C@@H]2CCCCN2C(=O)[C@H](Cc2c[nH]c3ccc(F)cc23)NC(=O)[C@H](Cc2c[nH]c3ccc(F)cc23)NC(=O)[C@@H](C)NC1=O [Compound 088] (cyclo(A[NMeF]P[X1]A[dA][Trp(5-F)][Trp(5-F)][Pip]))
10,100 to 1000,C[C@@H]1NC(=O)[C@@H]2CCCN2C(=O)[C@H](Cc2cccc(Cl)c2)NC(=O)[C@H](Cc2c[nH]c3ccc(F)cc23)NC(=O)CNC(=O)[C@H](CCCCN)NC(=O)CCSCc2cccc(c2)CSC[C@@H](C(N)=O)NC(=O)[C@@H]2CCCN2C(=O)[C@H](Cc2ccc(O)cc2)NC1=O [Compound 005] ([Mpa]KG[Trp(5-F)][Phe(3-Cl)]PAYPC-NH2; linker 1-10 via mXylylene)
11,100 to 1000,C[C@@H]1NC(=O)[C@@H]2CCCN2C(=O)CN(Cc2ccc(I)cc2)C(=O)[C@H](Cc2c[nH]c3ccc(F)cc23)NC(=O)CNC(=O)[C@H](CCCCN)NC(=O)CCSCc2cccc(c2)CSC[C@@H](C(N)=O)NC(=O)[C@@H]2CCCN2C(=O)[C@H](Cc2ccc(O)cc2)NC1=O [Compound 010] ([Mpa]KG[Trp(5-F)][NBzl(4-I)Gly]PAYPC-NH2; linker 1-10 via mXylylene)
12,21000 to 50000,C[C@@H]1NC(=O)CCSCc2cccc(c2)CSCCNC(=O)[C@@H]2CCCN2C(=O)[C@H](Cc2ccc(O)cc2)NC(=O)[C@H](C)NC(=O)[C@@H]2CCCN2C(=O)[C@H](Cc2c[nH]c3ccc(F)cc23)NC(=O)[C@H](Cc2c[nH]c3ccc(F)cc23)NC(=O)[C@@H](C)NC1=O [Compound 058] (cyclo(AYP[X1]A[dA][Trp(5-F)][Trp(5-F)]P))
13,1000 to 12100,C[C@@H]1NC(=O)[C@@H]2CCCN2C(=O)[C@H](Cc2ccc(Cl)cc2)NC(=O)[C@H](Cc2c[nH]c3ccc(F)cc23)NC(=O)CNC(=O)[C@H](CCCCN)NC(=O)CCSCc2cccc(c2)CSC[C@@H](C(N)=O)NC(=O)[C@@H]2CCCN2C(=O)[C@H](Cc2ccc(O)cc2)NC1=O [Compound 004] ([Mpa]KG[Trp(5-F)][Phe(4-Cl)]PAYPC-NH2; linker 1-10 via mXylylene)
14,1000 to 12100,C[C@@]12CCCN1C(=O)[C@H](Cc1ccc(O)cc1)NC(=O)[C@H](Cc1cnc[nH]1)NC(=O)[C@@H]1CCCN1C(=O)[C@H](Cc1c[nH]c3ccc(F)cc13)NC(=O)[C@H](CC1CCCCC1)NC(=O)CNC(=O)[C@H](CCCCN)NC(=O)CCSCc1cccc(c1)CSCCNC2=O [Compound 104] (cyclo([Cha][Trp(5-F)]PHY[αMeP][X1]KG))
15,100 to 1000,COc1ccc(C[C@@H]2NC(=O)[C@H](Cc3c[nH]c4ccc(F)cc34)NC(=O)CNC(=O)[C@H](CCCCN)NC(=O)CCSCc3cccc(c3)CSC[C@@H](C(N)=O)NC(=O)[C@@H]3CCCN3C(=O)[C@H](Cc3ccc(O)cc3)NC(=O)[C@H](C)NC(=O)[C@@H]3CCCN3C2=O)cc1 [Compound 018] ([Mpa]KG[Trp(5-F)]Y(Me)PAYPC-NH2; linker 1-10 via mXylylene)
16,100 to 1000,C[C@@H]1NC(=O)[C@@H]2CCCCN2C(=O)[C@H](Cc2c[nH]c3ccc(F)cc23)NC(=O)[C@H](Cc2c[nH]c3ccc(F)cc23)NC(=O)[C@@H](C)NC(=O)[C@H](CCCCN)NC(=O)CCSCc2cccc(c2)CSC[C@@H](C(N)=O)NC(=O)[C@@H]2CCCN2C(=O)[C@H](Cc2ccc(O)cc2)NC1=O [Compound 035] ([Mpa]K[dA][Trp(5-F)][Trp(5-F)][Pip]AYPC-NH2; linker 1-10 via mXylylene)
17,21000 to 50000,C[C@@H]1NC(=O)[C@@H]2CCCN2C(=O)[C@H](Cc2ccccn2)NC(=O)[C@H](Cc2c[nH]c3ccc(F)cc23)NC(=O)CNC(=O)[C@H](CCCCN)NC(=O)CCSCc2cccc(c2)CSC[C@@H](C(N)=O)NC(=O)[C@@H]2CCCN2C(=O)[C@H](Cc2ccc(O)cc2)NC1=O [Compound 019] ([Mpa]KG[Trp(5-F)][2Pal]PAYPC-NH2; linker 1-10 via mXylylene)
18,21000 to 50000,C[C@@H]1NC(=O)CCSCc2cccc(c2)CSCCNC(=O)[C@@H]2CCCN2C(=O)[C@H](Cc2ccc(O)cc2)NC(=O)[C@H](C)NC(=O)[C@@H]2c3ccccc3CCN2C(=O)[C@H](Cc2c[nH]c3ccc(F)cc23)NC(=O)[C@H](Cc2c[nH]c3ccccc23)NC(=O)[C@@H](C)NC1=O [Compound 092] (cyclo(AYP[X1]A[dA]W[Trp(5-F)][Tiq1c(1S)]))
19,100 to 1000,C[C@@H]1NC(=O)[C@@H]2CCCN2C(=O)[C@H](Cc2c[nH]c3ccc(F)cc23)NC(=O)[C@H](Cc2c[nH]c3ccc(F)cc23)NC(=O)[C@@H](C)NC(=O)C2(CCCC2)NC(=O)CCSCc2cccc(c2)CSCCNC(=O)[C@@H]2CCCN2C(=O)[C@H](Cc2ccc(O)cc2)NC1=O [Compound 030] (cyclo(AYP[X1][Ac5c][dA][Trp(5-F)][Trp(5-F)]P))
20,100 to 1000,C[C@@H]1NC(=O)[C@@H]2CCCN2C(=O)[C@H](Cc2c[nH]c3ccc(F)cc23)NC(=O)[C@H](Cc2c[nH]c3ccc(F)cc23)NC(=O)[C@@H](C)NC(=O)C2(CCOCC2)NC(=O)CCSCc2cccc(c2)CSCCNC(=O)[C@@H]2CCCN2C(=O)[C@H](Cc2ccc(O)cc2)NC1=O [Compound 031] (cyclo(AYP[X1][Thp][dA][Trp(5-F)][Trp(5-F)]P))
21,100 to 1000,C[C@@H]1NC(=O)[C@@H]2CCCN2C(=O)[C@H](Cc2c[nH]c3ccc(F)cc23)NC(=O)[C@H](Cc2c[nH]c3ccc(F)cc23)NC(=O)[C@@H](C)NC(=O)[C@H](C(C)(C)C)NC(=O)CCSCc2cccc(c2)CSCCNC(=O)[C@@H]2CCCN2C(=O)[C@H](Cc2ccc(O)cc2)NC1=O [Compound 095] (cyclo(AYP[X1][Tle][dA][Trp(5-F)][Trp(5-F)]P))
22,100 to 1000,C[C@@H]1NC(=O)CCSCc2cccc(c2)CSCCNC(=O)[C@@H]2CCCN2C(=O)[C@H](Cc2ccc3ccccc3c2)NC(=O)[C@H](C)NC(=O)[C@@H]2CCCN2C(=O)[C@H](Cc2c[nH]c3ccc(F)cc23)NC(=O)[C@H](Cc2cccc3ccccc23)NC(=O)[C@@H](C)NC1=O [Compound 079] (cyclo([1Nal][Trp(5-F)]PA[2Nal]P[X1]A[dA]))
23,1 to 100,C[C@@H]1NC(=O)[C@@H]2CCCN2C(=O)[C@H](Cc2c[nH]c3ccc(F)cc23)NC(=O)[C@H](Cc2c[nH]c3ccc(F)cc23)NC(=O)[C@@H](C)NC(=O)[C@@H]2CCCN2C(=O)CCSCc2cccc(c2)CSCCNC(=O)[C@@H]2CCCN2C(=O)[C@H](Cc2ccccc2)N(C)C1=O [Compound 051] (cyclo(A[NMeF]P[X1]P[dA][Trp(5-F)][Trp(5-F)]P))
